Test results taken from patent US6451787B1, “Remedies for ocular diseases” (Cephalon, Inc., priority 1998, dated 2002).

How the values were obtained:
[1] = system: retinal gangliocyte in a retinal ischemia—reperfusion model; assay: Effects on the retina subjected to the ischemia—reperfusion treatment; assay type: in vivo, rat
From the text: 1. Effects on the Retina Subjected to the Ischemia—Reperfusion Treatment
It has been reported that brain-derived neurotrophic factor (it is referred to as BDNF hereinafter) which is a neurotrophic factor has a protective effect against gangliocytic death caused by retinal ischemia (Invest. Ophthalmol. Vis. Sci. 35, 907-915 (1994)).
Thus, according to the method described in this reference, the effects of the compounds on retinal gangliocyte in a retinal ischemia—reperfusion model were studied.
Under anesthesia with a mixture of Ketalar and Celactal, the conjunctiva of a male Spraugue—Dawley rat (300-450 g) was dissected to expose the optic nerve and then the retina was subjected to an ischemic state by ligating the optic nerve with a suture. Sixty minutes after the ischemia, the suture was taken out to reperfuse the retina with the blood by allowing the circulation. Seven days after the reperfusion, the eye bulb was enucleated and then immobilized with paraformaldehyde, and after embedding it in paraffin, the transverse paraffin sections of the eye bulb with 3 μm of the thickness were prepared by slicing the eye bulb beginning from the point of exposure of the optic nerve with 60 μm of each interval. These sections were stained with hematoxylin—eosin and photographs were taken for the section in which the retinal part at the distance of approximately 1 mm from the optic disc to either direction, left or right, is included to measure the number of the cells contained in the layer of gangliocyte.
Here, the compound was dissolved into polyethylene glycol 660 hydroxystearate and injected in the volume of 1 μl into the hyaloid body two day before the creation of the ischemic state.

[2] = system: retinal disturbance induced by injecting kainic acid into the hyaloid body; assay: Effects on the retina from the eye treated with kainic acid; assay type: in vivo, rat; settings: for Thickness of the inner plexiform layer: injected two days before, at the same time as and one day after kainic acid, Normal 47.5, Control 20.8; for Thickness of the inner plexiform layer / Number of the cells in the layer of gangliocyte: 7 days after; for Number of the cells in the layer of gangliocyte: Normal 64.2, Control 36.8
Method: 2. Effects on the Retina From the Eye Treated with Kainic Acid
It has been reported that when kainic acid, that is a neurotoxin, is injected into the hyaloid body, the inner plexiform layer becomes thinner because of synaptic collapse caused by cell death of amacrine cell or the number of the cells contained in the layer of gangliocyte decreases because of apoptosis happening to those cells (Neurochem. Int., 31, 251-260 (1997)).
Then, according to the method described in this reference, the effects of the compound on the retinal disturbance induced by injecting kainic acid into the hyaloid body were studied.
To a male Sprague—Dawley rat (180-250 g) under anesthesia with pentobarbital, a solution of kainic acid in polyethylene glycol 660 hydroxystearate (1 mmol/L) was injected into the hyaloid bodies in both of the eyes in the amount of 5 μl under observation with a stereoscopic microscopy. […]. These sections were stained with hematoxylin—eosin and photographs were taken for the sections in which the retinal part at the distance of approximately 1 mm from the optic disc to either direction, left or right, is included to measure the thickness of the inner plexiform layer and the number of the cells contained in the layer of gangliocyte.
The compound was dissolved into polyethylene glycol 660 hydroxystearate and then injected into the hyaloid bodies two days before, at the same time as and one day after the kainic acid treatment in the volume of 5 μl each.

With `CCSCc1ccc2c(c1)c1c3c(c4c5cc(CSCC)ccc5n5c4c1n2[C@H]1C[C@](O)(C(=O)OC)[C@]5(C)O1)CNC3=O` [Compound A] the “Number of the cells in the layer of gangliocyte recovered to the level of that for Normal Group (1)” value ([1]; 3 μg injected, ischemia—reperfusion treatment) was 70.9%, the “Number of the cells in the layer of gangliocyte” value ([1]; 3 μg/eye injected into the hyaloid body two days before 60 min ischemia, 7 days after reperfusion, Normal Group 38.8, Control Group 20.5) was 27.5 cells/mm and the “Protective effect on neurocyte disturbance of the retina caused by the ischemia—reperfusion treatment” value ([1]; conclusion in words) was “superior protective effect”. For the same molecule, the “Number of the cells in the layer of gangliocyte recovered to the level of that for Normal group (2)” value ([2]; 3 μg injected, kainic acid treatment) was 80.7%, the “Thickness of the inner plexiform layer” value ([2]; 3 μg/eye) was 28.8 μm and the “Number of the cells in the layer of gangliocyte” value ([2]; 3 μg/eye, kainic acid treatment) was 51.8 cells/mm. The “Thickness of the inner plexiform layer” value ([2]; 30 μg/eye [sic]) was 23.8 μm, the “Number of the cells in the layer of gangliocyte” value ([2]; 30 μg/eye [sic], kainic acid treatment) was 42.3 cells/mm and the “Protective effect against neurocyte disturbance of the retina caused by the kainic acid treatment” value ([2]; conclusion in words) was “superior protective effect”.
